Results as given in patent US9181237B2, “Substituted berbines and their synthesis” (MALLINCKRODT LLC, priority 2013, dated 2015).

Experiments:
[1] = system: murine melanoma cell line, B16; assay: B16 cancer cell screening assay: inhibition of lactate dehydrogenase (LDH) release; type: cell-based; details: B16 cells exposed to several concentrations
Protocol: (§1) The murine melanoma cell line, B16, was used to screen the activity of compounds comprising Formula (V). B16 cells were grown under standard conditions and exposed to several concentrations of each of the tested compounds.

[2] = system: murine melanoma cell line, B16; assay: B16 cancer cell screening assay: inhibition of B16 proliferation; type: cell-based; details: B16 cells exposed to several concentrations; for IC50: read-out: B16 Profile IC50
Protocol: as §1

[3] = Mus musculus, B16, inhibition of lactate dehydrogenase (LDH) release
[4] = Mus musculus, B16, inhibition of B16 proliferation
[5] = inhibition of lactate dehydrogenase (LDH) release
[6] = inhibition of B16 proliferation

Row | SMILES | IC50 [1, 3] [µM] | IC50 [2, 4] [µM] | also measured
1 | COc1ccc2c(c1O)[C@H](Cc1ccccc1)N1CCc3cc4c(cc3[C@@H]1C2)OCO4 [M-R-0012] | > 700 | > 600 | 
2 | CCC[C@@H]1c2cc(OC)c(O)cc2C[C@H]2c3ccc(OC)cc3CCN12 [M-R-0007] |  | > 400 | B16 LDH IC50 [1, 5]: Inactive
3 | COc1cc2c(cc1O)[C@@H](Cc1ccccc1)N1CCc3cc4c(cc3[C@@H]1C2)OCO4 [M-R-0025] |  |  | IC50 [1, 5]: ~350 µM; IC50 [2, 6]: > 160 µM
4 | COc1ccc2c(c1)CCN1Cc3c(ccc(OC)c3O)C[C@H]21 [M-R-0010] |  | 300 | B16 LDH IC50 [1, 5]: Inactive
5 | COc1ccc2c(c1)CCN1[C@@H](c3ccccc3)c3cc(O)c(O)cc3C[C@@H]21 [M-R-0014] | 70 | 10 | 
6 | COc1ccc2c(c1)CCN1[C@H](c3ccccc3)c3cc(OC)c(O)cc3C[C@@H]21 [M-R-0005] | 30 | 35 | 
7 | COc1ccc2c(c1)CCN1Cc3cc(OC)c(O)cc3C[C@H]21 [M-R-0009] |  |  | B16 LDH IC50 [1, 5]: Inactive; B16 Profile IC50 [2, 6]: Inactive
8 | COc1ccc2c(c1)CCN1[C@H]2Cc2cc(O)c(OC)cc2[C@H]1C1CCC1 [M-R-0002] | 200 | 200 | 
9 | COc1ccc2c(c1)CCN1[C@H]2Cc2ccc(OC)c(O)c2[C@H]1C1CCC1 [M-R-0003] | 150 | > 600 | 
10 | COc1ccc2c(c1)CCN1Cc3cc(OC)c(O)cc3C[C@@H]21 [M-R-0004] | > 600 | > 600 | 
11 | COc1cc2c(cc1O)[C@@H](Cc1ccccc1)N1CCc3cc4c(cc3[C@@H]1C2)OCO4 [M-R-0013] | 700 |  | IC50 [2, 6]: 75 µM
12 | COc1ccc2c(c1)CCN1[C@@H](c3ccccc3)c3cc(OC)c(O)cc3C[C@@H]21 [M-R-0006] | 35 | 35 | 
13 | COc1ccc2c(c1)CCN1Cc3c(ccc(OC)c3O)C[C@@H]21 [M-R-0008] | > 320 | 38 | 
14 | CC[C@@H]1c2c(ccc(OC)c2O)C[C@H]2c3ccc(OC)cc3CCN12 [M-R-0001] | 175 | > 600 | 
15 | COc1cc2c(cc1OC)CN1CCc3cc4c(cc3[C@@H]1C2)OCO4 [M-R-0011] | 70 | 120 | 

More lines, main results first:

Row | IC50 [1, 3] [µM] | IC50 [2, 4] [µM] | SMILES | also measured
16 | 40 | 27 | COc1ccc2c(c1)CCN1[C@H](c3ccccc3)c3c(O)c(OC)cc(Br)c3C[C@@H]21 [M-R-0023] | 
17 | 30 | 25 | COc1ccc2c(c1)CCN1[C@@H](c3ccccc3N)c3c(O)c(OC)cc(Br)c3C[C@@H]21 [M-R-0022] | 
18 | 50 | 45 | COc1cc2c(cc1O)C[C@H]1c3cc4c(cc3CCN1[C@@H]2c1ccccc1)OCO4 [M-R-0019] | 
19 | 130 | 25 | COc1ccc2c(c1)CCN1[C@H](c3ccccc3)c3cc(O)c(O)cc3C[C@@H]21 [M-R-0015] | 
20 | 30 | 35 | COc1cc2c(cc1O)C[C@H]1c3cc4c(cc3CCN1[C@H]2c1ccccc1)OCO4 [M-R-0018] | 
21 | 60 | 55 | COc1ccc2c(c1)CCN1[C@H](Cc3ccccc3)c3cc(OC)c(O)cc3C[C@@H]21 [M-R-0017] | 
22 | 60 | 55 | COc1cc2c(cc1O)[C@H](Cc1ccccc1)N1CCc3cc4c(cc3[C@@H]1C2)OCO4 [M-R-0026] | 
23 | 70 | 60 | COc1ccc2c(c1)CCN1[C@H](c3ccccc3)c3c(ccc(OC)c3O)C[C@@H]21 [M-R-0024] | 
24 | 30 | 18 | COc1ccc2c(c1)CCN1[C@@H](c3ccccc3Br)c3c(O)c(OC)cc(Br)c3C[C@@H]21 [M-R-0020] | 
25 | 700 | 75 | COc1ccc2c(c1)CCN1[C@H](Cc3ccccc3)c3c(ccc(OC)c3O)C[C@@H]21 [M-R-0016] | 
26 | ~350 | 65 | COc1ccc2c(c1)CCN1[C@H](Cc3ccccc3)c3c(O)c(OC)cc(Br)c3C[C@@H]21 [M-R-0021] | 
